Measured values taken from article PMC9611727, “Optimization of a Novel Mandelamide-Derived Pyrrolopyrimidine Series of PERK Inhibitors” (Pharmaceutics, 2022).

Assays:
p-ERK = test: FLT3-ITD downstream signaling, p-ERK western blot in MV4-11 cells; type: cell-based; conditions: Homo sapiens, normalized to Crenolanib, read-out: pERK IC50
Experimental: (§1) MV-4-11 and EoL-1 were plated at a density 20,000 cells/well in a 96 well plate. Cells were incubated with DMSO, 1 µM docetaxel, or an 8-pt, 2-fold dose response of 26 in quadruplicate. On day 3 and day 7, cells from DMSO-treated wells were counted and cells from all wells were split back so that the DMSO-treated wells matched the original seeding density. Cells were centrifuged in 96 well filter plates (Sigma) and resuspended in fresh compound-containing media.
(§2) On day 10, cells were incubated with alamarBlue™ HS Cell Viability Reagent (Invitogen) (10 µL of alamarBlue in a well of 90 µL media) for 2 hours at 37C/5% CO2. Fluorescence was measured on the EnVision Plate reader (Perkin Elmer) at an ex/em of 560/590 nm. Raw fluorescence values were normalized to positive and negative controls (DMSO, 1 µM docetaxel) to get a % viability. Replicates were averaged and dose responses were plotted on a 4 Parameter Logistic […]
(§3) MV-4-11 cells were plated in 6 well plates overnight in reduced serum media (IMDM + 0.5% FBS). The following day, compound or vehicle were added to the plate for a final DMSO concentration of 0.1% and incubated at 37 C for 2 hours.
(§4) Cells were washed with 1X PBS (Gibco 10010-023), and lysed in RIPA buffer with added inhibitors. Protein concentration was determined using a BCA assay (Thermo Scientific 23225). […]

MV4-11 (FLT3-ITD) = test: Cell viability assay, MV4-11; type: cell-based; conditions: Homo sapiens
Experimental: as §1, §2, §3, §4

PERK = molecular target: T1, PERK (Homo sapiens, UniProt Q9NZJ5); test: ISR kinase cell-free biochemical assay (Carna), PERK; conditions: ATP 8 µM
T1 construct: purchased Carna 05-155
Experimental: (§5) In brief, 26 was dissolved in DMSO and serially diluted 3-fold to generate concentrations ranging from 10 µM to 0.2 nM in a 384-well plate using a TECAN EVO200 automated liquid handler. 10 nL stock solution was transferred into each well of a 384well assay plate by an Echo550 and an equivalent volume of DMSO was added to the control wells. To each assay well, recombinant protein was suspended in 20 µL reaction buffer (listed below) and incubated at 25 °C for 1.5 h while shaking at 1250 rpm. Following incubation, 10 µL of a FRET dilution buffer including 20 mM EDTA and 4 nM Tb-anti-peIF2a [pSer51] (Invitrogen, Cat# PV4815) was added to each well and incubated at 25 °C for 2 h while shaking at 600 rpm in the dark. Analysis was performed using an Envision Microplate Reader (PerkinElmer).

HRI = molecular target: T2, HRI (Homo sapiens, UniProt Q9BQI3); test: ISR kinase cell-free biochemical assay (Carna), HRI; conditions: ATP 30 µM
T2 construct: purchased Carna 05-154
Experimental: as §5

phosphoPERK (T980) = test: PERK autophosphorylation (pPERK/PERK) in mouse pancreas after oral dosing; type: in vivo; conditions: 30 mg/kg oral, 1 h
Experimental: For PK analysis of pyrrolopyrimidine analogs in mouse, rat, and dog plasma, the oral formulation was prepared as a solution containing 20% (w/v) Captisol in 25 mM NaH2PO4 buffer (pH 2). Compounds were administered orally by gavage at 10 mg/kg to female CD1 mice. After dosing, plasma samples were collected to characterize the PK profiles at 0.25, 0.5, 1, 2, 4, 8, 12 and 24 h post-dose. The plasma concentration of compound was determined by protein precipitation with acetonitrile and liquid chromatography with mass spectrometric detection (LC-MS/MS). Parameters were estimated using Phoenix (WinNonlin) pharmacokinetic software version 6.1.0 using a non-compartmental approach consistent with the oral route of administration. PK analysis of 26 in plasma and pancreas followed a similar analytical method as above, with minor modifications. Compound 26 was suspended in a vehicle consisting of 0.5% methylcellulose (400 cP) and 0.1% Tween80 in water and administered to BALB/c nude mice by oral gavage at 0.3, 1, 3, 10, 30 mg/kg. Plasma and pancreas were sampled from 5 mice per group following a single oral administration at 1, 4, 8, 12, 24 h post-dose.
Total protein was extracted from pancreas tissues sampled during PK studies described above. […]

p-STAT5 = test: FLT3-ITD downstream signaling, p-STAT5 western blot in MV4-11 cells; type: cell-based; conditions: Homo sapiens, normalized to Crenolanib, read-out: pSTAT5 IC50
Experimental: as §1, §2, §3, §4

T2 sequence (Q9BQI3 whole entry): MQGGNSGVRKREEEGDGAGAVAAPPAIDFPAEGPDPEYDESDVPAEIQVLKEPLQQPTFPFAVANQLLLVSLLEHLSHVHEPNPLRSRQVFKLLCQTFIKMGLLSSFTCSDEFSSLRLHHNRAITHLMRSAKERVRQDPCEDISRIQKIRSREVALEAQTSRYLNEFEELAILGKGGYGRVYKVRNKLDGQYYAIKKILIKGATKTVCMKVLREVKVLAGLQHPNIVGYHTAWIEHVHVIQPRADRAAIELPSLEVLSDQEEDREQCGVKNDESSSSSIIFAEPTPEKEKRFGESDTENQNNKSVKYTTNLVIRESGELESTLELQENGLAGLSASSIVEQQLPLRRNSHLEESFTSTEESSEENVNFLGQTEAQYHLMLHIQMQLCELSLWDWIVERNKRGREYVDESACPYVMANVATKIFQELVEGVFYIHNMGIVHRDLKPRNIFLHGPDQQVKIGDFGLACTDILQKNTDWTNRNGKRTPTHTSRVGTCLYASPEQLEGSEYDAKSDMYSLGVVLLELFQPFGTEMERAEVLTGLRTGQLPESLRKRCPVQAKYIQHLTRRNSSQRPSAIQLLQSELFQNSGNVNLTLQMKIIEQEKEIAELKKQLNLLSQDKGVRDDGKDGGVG
T1 sequence (Q9NZJ5 563-1116 limits assumed): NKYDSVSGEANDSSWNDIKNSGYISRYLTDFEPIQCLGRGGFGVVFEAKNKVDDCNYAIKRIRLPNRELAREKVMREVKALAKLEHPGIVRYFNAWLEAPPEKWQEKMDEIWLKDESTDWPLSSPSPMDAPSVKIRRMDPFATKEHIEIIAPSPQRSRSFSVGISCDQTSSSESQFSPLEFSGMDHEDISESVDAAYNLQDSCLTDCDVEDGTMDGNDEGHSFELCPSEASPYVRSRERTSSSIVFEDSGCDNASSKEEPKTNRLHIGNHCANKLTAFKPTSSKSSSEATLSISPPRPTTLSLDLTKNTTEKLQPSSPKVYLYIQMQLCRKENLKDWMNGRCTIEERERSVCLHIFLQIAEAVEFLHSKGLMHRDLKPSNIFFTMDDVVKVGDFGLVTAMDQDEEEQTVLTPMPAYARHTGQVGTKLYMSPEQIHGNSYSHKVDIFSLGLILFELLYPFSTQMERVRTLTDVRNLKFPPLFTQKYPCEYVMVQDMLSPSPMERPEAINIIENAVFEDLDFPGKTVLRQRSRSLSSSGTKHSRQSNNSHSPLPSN

## Cc1nc(N)c2c(-c3ccc(NC(=O)[C@H](O)c4cccc(C(F)(F)F)c4)cc3C)cn(C)c2n1 [Compound 26]
p-ERK
  IC50: 551 nM
MV4-11 (FLT3-ITD)
  IC50: 226 nM
PERK
  IC50: 4.7 nM
HRI
  IC50: > 10000 nM
phosphoPERK (T980)
  inhibition of pPERK/PERK in pancreas: approximately 80%
p-STAT5
  IC50: 64 nM
